The values below come from the ASAP Discovery antiviral challenge data (2025).

≈ marks a conversion by molar mass, not a printed value. Where “and” joins values, the source holds several entries; their conditions need not be identical. Equal entries are not always repeated.

The conditions of data set [1]: mdck_mdr1.
Assay in data set [2]: not given
The source holds these as a separate data set.

For the molecule `O=C(NCC(F)F)[C@H](Nc1cnc2c(c1)CNC2)c1cc(Cl)cc(C2CC2)c1` (racemic), the logD turned out to be 1.5. This molecule displayed a Papp in data set [1] of 0.8 ×10⁻⁶ cm/s. The molecule also displayed a kinetic solubility in data set [2] of 362 µM (≈ 147 µg/mL).

Consider `C[C@H]1O[C@@H](O[C@H]2[C@@H](O)C[C@H](O[C@H]3[C@@H](O)C[C@H](O[C@H]4CC[C@@]5(C)[C@H](CC[C@@H]6[C@@H]5C[C@@H](O)[C@]5(C)[C@@H](C7=CC(=O)OC7)CC[C@]65O)C4)O[C@@H]3C)O[C@@H]2C)C[C@H](O)[C@@H]1O`, for which the Papp in data set [1] is 0.6 ×10⁻⁶ cm/s.

With `CCc1cc(C(=O)Nc2cccc(CN)c2)sc1-c1ccc(Cl)cc1`, the logD turned out to be 4.3. In data set [1], the Papp was found to be 0.995 ×10⁻⁶ cm/s. Besides, in data set [2], the kinetic solubility stood at 7 µM (≈ 2.6 µg/mL).

In turn, `CC(C)NC(=O)[C@H](Nc1ccc2c(c1)CNC2)c1cc(Cl)cc2[nH]ncc12` (racemic) gave a logD of 0.5. The molecule further returned a Papp in data set [1] of 0.963 ×10⁻⁶ cm/s. In addition, the kinetic solubility in data set [2] is 311 µM (≈ 119 µg/mL).

For the molecule `CC(C)[C@H](Nc1ncnc2[nH]c(C(=O)N[C@@H]3CCN(C)C3)cc12)c1ccc2c(c1)S(=O)(=O)CCC2` (single isomer, unassigned), the logD is 1.4 and 1.6. Further, in data set [2], the solubility (kinetic) was 366 µM and 392 µM.

With `CNC(=O)[C@H](Nc1ccc2c(c1)CNC2)c1cc(Cl)cc(C2CC2)c1` (racemic), the logD was 0.9. In data set [1], the Papp is 1.5 ×10⁻⁶ cm/s. In data set [2], this molecule yielded a kinetic solubility of 358 µM (≈ 127 µg/mL).

Turning to `O=C(NCC(F)F)[C@H](Nc1ccc2c(c1)CNC2)c1cc(Cl)cc(C2CC2)c1` (single isomer, unassigned), the logD is 1.3 and 1.4. The Papp in data set [1] was 1.3 ×10⁻⁶ cm/s and 1.9 ×10⁻⁶ cm/s. Further, the kinetic solubility in data set [2] is 326 µM and 139 µM.

`O=C(Nc1cc(Cl)cc(C(=O)Nc2n[nH]c3c2CNC3)c1)OCc1ccccc1`: the Papp in data set [1] was 1.44 ×10⁻⁶ cm/s. This molecule also returned a kinetic solubility in data set [2] of 26 µM (≈ 10.7 µg/mL).

Molecule `NCc1cc(C(=O)O)cc([C@@H]2C[C@H]2c2cc(Cl)cc(NC(=O)OCc3ccccc3)c2)c1` (racemic) yielded a logD of 2.7. The same molecule returned a Papp in data set [1] of 0.819 ×10⁻⁶ cm/s. The molecule further yielded a solubility (kinetic) in data set [2] of 52 µM (≈ 23.4 µg/mL).

The molecule `CCCCNC(=O)[C@H](Nc1ccc2c(c1)CNC2)c1cc(Cl)cc(C2CC2)c1` (racemic) showed a logD of 2.3. The molecule also registered a Papp in data set [1] of 0.7 ×10⁻⁶ cm/s. In addition, the solubility (kinetic) in data set [2] worked out at 379 µM (≈ 151 µg/mL).

`N#CCCNC(=O)[C@H](Nc1ccc2c(c1)CNC2)c1cc(Cl)cc(C2CC2)c1` (racemic) had a logD of 0.6. The Papp in data set [1] came to 0.5 ×10⁻⁶ cm/s. Also, the solubility (kinetic) in data set [2] is 374 µM (≈ 148 µg/mL).

Regarding `O=C(Nc1cc(Cl)cc([C@H](Nc2cccc(-c3nn[nH]n3)c2)C(=O)NCc2ccccc2)c1)OCc1ccccc1` (racemic), the logD turned out to be 3.7. The molecule further yielded a Papp in data set [1] of 0.6 ×10⁻⁶ cm/s.

`O=C(Nc1ccc2c(c1)CNC2)c1cc(Cl)cc2c1CCC2` yielded a logD of 1.8. The Papp in data set [1] is 2.57 ×10⁻⁶ cm/s. In data set [2], this molecule gave a solubility (kinetic) of 335 µM (≈ 105 µg/mL).

Molecule `CNC(=O)[C@H](Nc1cccc(-c2nn[nH]n2)c1)c1cc(Cl)cc2[nH]ncc12` (racemic) gave a logD of 0.3. In data set [1], this molecule came in with a Papp of 0.863 ×10⁻⁶ cm/s. Further, the kinetic solubility in data set [2] came out at 347 µM (≈ 133 µg/mL).

`Cc1ccc(NC(=O)c2cc(Cl)cc(NC(=O)OCc3ccccc3)c2)cc1CN`: the Papp in data set [1] is 0.0873 ×10⁻⁶ cm/s.

With `CC(C)[C@H](Nc1ncnc2[nH]cc(C(=O)NC3CC3)c12)c1ccc2c(c1)S(=O)(=O)CCC2` (single isomer, unassigned), the logD was 3.2 and 3. In data set [1], the Papp is 2.97 ×10⁻⁶ cm/s and 1.27 ×10⁻⁶ cm/s.

For `COCc1cc(Cl)cc([C@H](Nc2ccc3c(c2)CNC3)C(=O)NCC(F)F)c1` (racemic), the logD worked out at 0.2. The Papp in data set [1] is 1.7 ×10⁻⁶ cm/s. Moreover, the kinetic solubility in data set [2] came to 192 µM (≈ 78.7 µg/mL).

Take `CNC(=O)[C@H](Nc1ccc(-c2nnn[nH]2)cc1)c1cc(Cl)cc(C2CC2)c1` (racemic): the logD was 1.1. In data set [1], this molecule registered a Papp of 1.6 ×10⁻⁶ cm/s.

As to `O=C(NCC(F)F)[C@H](Nc1ccc2c(c1)CNC2)c1cc(Cl)cc2ccoc12` (racemic), the logD was found to be 0.6. In data set [1], this molecule gave a Papp of 2.1 ×10⁻⁶ cm/s. The molecule further registered a kinetic solubility in data set [2] of 187 µM (≈ 75.9 µg/mL).

`O=C1Cc2c(cccc2C(=O)Nc2ccc3c(c2)CNC3)N1`: the logD is 0.3. The molecule also returned a Papp in data set [1] of 0.924 ×10⁻⁶ cm/s. In data set [2], this molecule returned a solubility (kinetic) of 152 µM (≈ 44.6 µg/mL).

Molecule `O=C(O)Cn1ncc2cc(-c3cc(Cl)cc(NC(=O)OCc4ccccc4)c3)ccc21` came in with a logD of 2.6. Moreover, in data set [1], the Papp came to 5.12 ×10⁻⁶ cm/s. Further, the kinetic solubility in data set [2] worked out at 131 µM (≈ 57.1 µg/mL).

For `CNC(=O)[C@H](Nc1cc(CN)cc(-c2nn[nH]n2)c1)c1cc(Cl)cc(C2CC2)c1` (racemic), the logD was 1.5. In data set [1], this molecule had a Papp of 0.302 ×10⁻⁶ cm/s. Moreover, in data set [2], the solubility (kinetic) came to 352 µM (≈ 145 µg/mL).

For `O=C(NCC(F)F)[C@H](Nc1ccc2c(c1)CNC2)c1cc(Cl)cc2c1CCC2` (racemic), the logD amounted to 1.2. This molecule also registered a Papp in data set [1] of 0.9 ×10⁻⁶ cm/s.

The molecule `Cn1ncc2c(C(=O)Nc3ccc4c(c3)CNC4)cc(Br)cc21` came in with a logD of 1. The Papp in data set [1] stood at 4.66 ×10⁻⁶ cm/s. For the same molecule, the kinetic solubility in data set [2] was determined as 392 µM (≈ 146 µg/mL).

The molecule `Cc1nccn1C[C@H]1CCc2c(c3ccccc3n2C)C1=O` (racemic) had a solubility (kinetic) in data set [2] of 127 µM (≈ 37.3 µg/mL).

`O=C1Cc2c(cc(F)cc2C(=O)Nc2ccc3c(c2)CNC3)N1` returned a pH-dependent lipophilicity (logD) of -0.2. Moreover, in data set [1], the Papp worked out at 2.9 ×10⁻⁶ cm/s. Moreover, the solubility (kinetic) in data set [2] worked out at 368 µM (≈ 115 µg/mL).
